Measured values as given in patent publication US20200017495A1, “NOVEL HETEROCYCLIC COMPOUNDS AND THEIR USE IN PREVENTING OR TREATING BACTERIAL INFECTIONS” (priority 2017, published 2020).
Where two headings read alike, the source gives them in different places.

How the values were obtained:
Format in all cases: cell-based
[1] = test system: Proteus mirabilis (PMI) isolates; test: microbe, parasite or virus in culture; details: Proteus mirabilis
Protocol: Method 2: MIC of Compounds Alone and Combined with Antibacterials Against Bacterial Isolates
Compounds of the present invention were assessed against genotyped bacterial strains (Table 3, 4) alone or in combination with an antibacterial (Table 2). […] Log phase bacterial suspensions were adjusted to a final density of 5.10^5 CFU/mL in cation-adjusted Mueller-Hinton broth (ca-MHB; Becton-Dickinson and Company) and added to each well (98 μL). Microplates were incubated for 16-20 h at 35° C. in ambient air. The MIC of the compounds was defined as the lowest concentration of said compounds that prevented bacterial growth as read by visual inspection. The MIC of ATB at each compound concentration was defined as the lowest concentration of ATB that prevented bacterial growth as read by visual inspection.

[2] = test system: Serratia marcescens (SMA) isolates; test: MIC of compounds alone and combined with antibacterials, broth microdilution (CLSI); details: Serratia marcescens
Outline: (§1)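 Antibacterial MICs in combination were determined at every compound concentration tested, alongside compound MICs alone. Bacteria grew in cation-adjusted Mueller-Hinton broth starting from 5.10^5 CFU/mL, incubated at 35° C for 16-20 h, and endpoints were the lowest concentrations with no visible growth.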

[3] = test system: Enterobacter aerogenes (EAE) isolates; test: as above; details: Klebsiella aerogenes
Outline: as §1

[4] = test system: Enterobacter cloacae (ECL) isolates; test: as above; details: Enterobacter cloacae
Outline: as §1

[5] = strain PMI UFR82, genotype CMY-2, read-out: MIC
[6] = strain PMI UFR122, genotype TEM-1, CTX-M-15, read-out: MIC
[7] = strain PMI UFR130, genotype CMY-2, read-out: MIC
[8] = strain SMA UFR137, genotype SME-1, read-out: MIC
[9] = strain SMA UFR138, genotype SME-1, read-out: MIC
[10] = strain SMA UFR139, genotype SME-2, read-out: MIC
[11] = strain SMA UFR239, genotype ESAC, read-out: MIC
[12] = strain EAE 49469, genotype AmpC, read-out: MIC

Structure (SMILES): C=CC1=C(C(=O)O)N2C(=O)[C@@H](NC(=O)/C(=N\O)c3csc(N)n3)[C@H]2SC1 [CDR, Cefdinir]
- MIC [1, 5]: 16 µg/mL
- MIC ([1]; strain PMI UFR120, genotype TEM-1, SHV-11, CTX-M-14, read-out: MIC): 64 µg/mL
- MIC ([1]; strain PMI UFR121, genotype TEM-1, TEM-52): > 256 µg/mL
- MIC [1, 6]: 16 µg/mL
- MIC ([1]; strain PMI UFR123, genotype CTX-M-1): > 256 µg/mL
- MIC ([1]; strain PMI UFR124, genotype CTX-M-2): > 256 µg/mL
- MIC ([1]; strain PMI UFR125, genotype CTX-M-71, read-out: MIC): 256 µg/mL
- MIC ([1]; strain PMI UFR126, genotype TEM-2, PER-1): > 256 µg/mL
- MIC ([1]; strain PMI UFR127, genotype VEB-1): > 256 µg/mL
- MIC ([1]; strain PMI UFR129, genotype TEM-1, VEB-6): > 256 µg/mL
- MIC [1, 7]: 16 µg/mL
- MIC ([1]; strain PMI UFR237, genotype VEB-6): > 256 µg/mL
- MIC [2]: > 256 µg/mL
- MIC ([2]; strain SMA UFR134, genotype TEM-1, BES-1, read-out: MIC): 256 µg/mL
- MIC [2, 8]: 4 µg/mL
- MIC [2, 9]: 8 µg/mL
- MIC [2, 10]: 64 µg/mL
- MIC [2, 11]: 128 µg/mL
- MIC [3]: > 256 µg/mL
- MIC [3, 12]: > 128 µg/mL
- MIC ([3]; strain EAE UFR202, genotype TEM-24, read-out: MIC): 256 µg/mL
- MIC ([3]; strain EAE UFR213, genotype TEM-24, read-out: MIC): 256 µg/mL
- MIC ([4]; strain ECL 2185D, genotype OXA-163): > 256 µg/mL
- MIC ([4]; strain ECL 190310, genotype AmpC): > 256 µg/mL
- MIC ([4]; strain ECL 190408, genotype TEM-1, CTX-M-15, OXA-1): > 256 µg/mL
- MIC ([4]; strain ECL 200138, genotype AmpC): > 256 µg/mL
- MIC ([4]; strain ECL 200322, genotype TEM-1, CTX-M-15, OXA-1): > 256 µg/mL
- MIC ([4]; strain ECL 260033, genotype AmpC): > 256 µg/mL
- MIC ([4]; strain ECL 260253, genotype TEM-1, KPC-3): > 256 µg/mL
- MIC ([4]; strain ECL 260323, genotype AmpC, read-out: MIC): 256 µg/mL
- MIC ([4]; strain ECL 260508, genotype TEM-1, CTX-M-15): > 256 µg/mL
- MIC ([4]; strain ECL NEM146383, genotype AmpC): > 256 µg/mL
- MIC ([4]; strain ECL P99, genotype AmpC): > 256 µg/mL
- MIC ([4]; strain ECL UFR12, genotype CTX-M-9, OXA-48): > 256 µg/mL
- MIC ([4]; strain ECL UFR13, genotype TEM-1, SHV-12, CTX-M-9, OXA-48): > 256 µg/mL
- MIC ([4]; strain ECL UFR14, genotype TEM-1, SHV-12, CTX-M-15, DHA-1, OXA-1, OXA-48): > 256 µg/mL
- MIC ([4]; strain ECL UFR60, genotype TEM-1, CTX-M-15, KPC-2): > 256 µg/mL
- MIC ([4]; strain ECL UFR70, genotype TEM-1, CTX-M-15, CMY-2, OXA-1, Porin loss): > 256 µg/mL
- MIC ([4]; strain ECL UFR84, genotype TEM-1, AmpC, OXA-1): > 256 µg/mL
- MIC ([4]; strain ECL UFR85, genotype TEM-1, CTX-M-15, AmpC): > 256 µg/mL
- MIC ([4]; strain ECL UFR194, genotype OXA-48): > 256 µg/mL
- MIC ([4]; strain ECL UFR195, genotype TEM-1, CTX-M-15, OXA-1, OXA-48): > 256 µg/mL
- MIC ([4]; strain ECL UFR196, genotype TEM-1, CTX-M-15, OXA-1, OXA-48): > 256 µg/mL
- MIC ([4]; strain ECL UFR197, genotype TEM-1, CTX-M-15, OXA-1, OXA-48): > 256 µg/mL
- MIC ([4]; strain ECL UFR198, genotype TEM-1, SHV-12, CTX-M-15, DHA-1, OXA-1, OXA-48): > 256 µg/mL
- MIC ([4]; strain ECL UFR200, genotype TEM-1, SHV-12, KPC-2): > 256 µg/mL

Structure (SMILES): COCC1=C(C(=O)O)N2C(=O)[C@@H](NC(=O)/C(=N\OC)c3csc(N)n3)[C@H]2SC1 [POD, Cefpodoxime]
- MIC [1, 5]: 64 µg/mL
- MIC [1, 6]: 64 µg/mL
- MIC ([1]; strain PMI UFR127, genotype VEB-1, read-out: MIC): 128 µg/mL
- MIC [1, 7]: 128 µg/mL
- MIC ([2]; strain SMA UFR30, genotype OXA-405, read-out: MIC): 32 µg/mL
- MIC [2, 8]: 1 µg/mL
- MIC [2, 9]: 2 µg/mL
- MIC [2, 10]: 8 µg/mL
- MIC ([2]; strain SMA UFR141, genotype OXA-48, read-out: MIC): 8 µg/mL
- MIC ([2]; strain SMA UFR142, genotype OXA-48, read-out: MIC): 8 µg/mL
- MIC ([2]; strain SMA UFR238, genotype OXA-48, read-out: MIC): 8 µg/mL
- MIC [2, 11]: 16 µg/mL
- MIC [3, 12]: > 128 µg/mL
- MIC ([4]; strain ECL P99, genotype AmpC, read-out: MIC): > 512 µg/mL
- MIC ([4]; strain ECL UFR12, genotype CTX-M-9, OXA-48, read-out: MIC): 128 µg/mL
- MIC ([4]; strain ECL UFR194, genotype OXA-48, read-out: MIC): 16 µg/mL
